From ChEMBL document CHEMBL4715885, “Novel dual LSD1/HDAC6 inhibitors for the treatment of multiple myeloma” (Bioorg Med Chem Lett, 2021)
Converted amounts (≈) assume the structure as drawn. Blank lines part the entries; values can stand above or below the molecule they belong to. The source made the active and inactive calls. The rule behind the calls is not given here.

Tests used:
[1] = target: T1, Protein deacetylase HDAC6 (Homo sapiens, UniProt Q9UBN7); experiment: Inhibition of human HDAC6 (unknown origin) using RHKKAc as substrate by fluorescence method
T1 sequence (Q9UBN7 whole entry): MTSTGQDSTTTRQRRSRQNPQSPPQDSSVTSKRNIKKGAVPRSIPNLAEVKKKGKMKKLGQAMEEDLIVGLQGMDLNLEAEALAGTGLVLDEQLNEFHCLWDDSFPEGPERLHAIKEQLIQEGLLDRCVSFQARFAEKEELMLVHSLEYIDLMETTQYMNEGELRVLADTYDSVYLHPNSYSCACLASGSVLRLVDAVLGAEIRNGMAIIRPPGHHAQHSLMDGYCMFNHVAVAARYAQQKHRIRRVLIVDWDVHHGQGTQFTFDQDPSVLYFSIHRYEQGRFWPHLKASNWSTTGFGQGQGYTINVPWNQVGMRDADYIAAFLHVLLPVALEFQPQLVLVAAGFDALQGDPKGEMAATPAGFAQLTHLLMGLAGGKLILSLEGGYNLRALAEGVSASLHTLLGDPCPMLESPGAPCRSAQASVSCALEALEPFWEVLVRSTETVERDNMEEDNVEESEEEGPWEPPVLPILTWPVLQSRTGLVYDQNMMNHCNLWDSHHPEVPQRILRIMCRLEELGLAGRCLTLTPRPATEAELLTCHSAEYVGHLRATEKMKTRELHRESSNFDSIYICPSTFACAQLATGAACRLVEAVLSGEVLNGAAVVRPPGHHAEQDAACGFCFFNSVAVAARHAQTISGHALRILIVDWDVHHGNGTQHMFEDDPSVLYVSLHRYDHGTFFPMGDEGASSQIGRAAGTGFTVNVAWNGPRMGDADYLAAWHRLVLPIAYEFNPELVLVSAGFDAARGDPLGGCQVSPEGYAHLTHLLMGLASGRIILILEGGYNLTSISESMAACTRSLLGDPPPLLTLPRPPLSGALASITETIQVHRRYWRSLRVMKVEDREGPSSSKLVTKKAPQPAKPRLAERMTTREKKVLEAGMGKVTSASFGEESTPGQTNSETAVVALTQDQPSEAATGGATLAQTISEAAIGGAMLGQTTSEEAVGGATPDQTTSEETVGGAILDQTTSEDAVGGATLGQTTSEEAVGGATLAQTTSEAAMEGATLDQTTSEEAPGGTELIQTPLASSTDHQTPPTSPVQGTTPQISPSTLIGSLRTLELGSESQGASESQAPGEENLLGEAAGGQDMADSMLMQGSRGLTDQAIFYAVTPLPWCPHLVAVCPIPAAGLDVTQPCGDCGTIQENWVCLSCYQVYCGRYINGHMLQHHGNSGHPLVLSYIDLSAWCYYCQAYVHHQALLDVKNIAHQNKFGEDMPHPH

[2] = target: Histone deacetylase 1 (Homo sapiens) (UniProt Q13547); experiment: Inhibition of human HDAC1 at 1uM using RHKKAc as substrate by fluorescence method relative to control
MM1.S [3] = experiment: Antiproliferative activity against human MM1.S cells assessed as reduction in cell viability after 144 hrs; format: functional, cell-based
MM1.S [4] = experiment: Antiproliferative activity against human MM1.S cells assessed as reduction in cell viability at 10 uM after 144 hrs relative to control; format: functional
[5] = Stability in human liver microsomes assessed as parent compound remaining measured after 30 mins; format: ADME, Microsome; conditions: microsomes, 0.5 h
[6] = Stability in mouse liver microsomes assessed as parent compound remaining measured after 30 mins; format: ADME, Microsome; conditions: microsomes, 0.5 h
[7] = Inhibition of HDAC phosphorylation (unknown origin); set-up: species or system Homo sapiens
[8] = target: T2, Polyamine deacetylase HDAC10 (Homo sapiens, UniProt Q969S8); experiment: Inhibition of HDAC10 (unknown origin)
T2 sequence (Q969S8 whole entry): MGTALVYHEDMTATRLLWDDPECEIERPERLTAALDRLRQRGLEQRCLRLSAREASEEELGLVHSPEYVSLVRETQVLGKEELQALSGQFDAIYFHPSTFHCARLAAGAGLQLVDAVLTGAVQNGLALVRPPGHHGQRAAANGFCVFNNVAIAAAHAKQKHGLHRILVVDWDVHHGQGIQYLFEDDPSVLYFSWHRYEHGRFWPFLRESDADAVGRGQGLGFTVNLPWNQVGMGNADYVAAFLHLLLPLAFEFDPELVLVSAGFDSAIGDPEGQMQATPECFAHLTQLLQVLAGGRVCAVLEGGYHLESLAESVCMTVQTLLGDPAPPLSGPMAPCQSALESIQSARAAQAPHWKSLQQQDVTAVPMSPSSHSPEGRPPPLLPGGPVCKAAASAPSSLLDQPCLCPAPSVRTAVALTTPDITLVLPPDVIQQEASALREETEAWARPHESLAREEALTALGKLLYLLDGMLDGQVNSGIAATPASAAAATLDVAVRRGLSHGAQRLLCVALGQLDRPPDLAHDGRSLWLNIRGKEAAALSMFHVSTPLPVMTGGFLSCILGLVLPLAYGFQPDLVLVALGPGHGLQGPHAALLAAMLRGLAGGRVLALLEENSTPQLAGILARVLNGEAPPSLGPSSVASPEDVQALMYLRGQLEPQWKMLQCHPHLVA

[9] = Antiproliferative activity against human MM1.R cells assessed as reduction in cell viability after 144 hrs; format: functional, cell-based; conditions: MM.1R
RPMI-8226 = experiment: Antiproliferative activity against human RPMI-8226 cells assessed as reduction in cell viability after 144 hrs; format: functional, cell-based; conditions: RPMI-8226, 144 h
MM1.S [10] = experiment: Antitumour activity against human MM1.S cells xenografted in SCID mouse assessed as tumour growth inhibition at 25 mg/kg, po for 12 days relative to control; format: functional; conditions: 288 h, time 12 day, read-out: TGI
[11] = Toxicity in SCID mouse xenografted with human MM1.S cells assessed as induction of body weight loss at 50 mg/kg, po dosed daily for 12 days; format: organism-based; conditions: in vivo, 288 h, time 12 day
[12] = Drug concentration in tumour of mouse xenografted with human MM1.S cells at 50 mg/kg, po dosed daily for 12 days; format: ADME, organism-based, Neoplasm; conditions: time 12 day, read-out: Drug uptake
[13] = Drug concentration in plasma of mouse xenografted with human MM1.S cells at 50 mg/kg, po dosed daily for 12 days; format: ADME, organism-based; conditions: time 12 day
[14] = Half life in Balb/c mouse at 10 mg/kg, iv; format: ADME, organism-based; conditions: in vivo
[15] = Half life in Balb/c mouse at 50 mg/kg, po; format: ADME, organism-based; conditions: in vivo
[16] = Cmax in Balb/c mouse at 10 mg/kg, iv; format: ADME, organism-based; set-up: route intravenous, dose 10 mg/kg; conditions: in vivo
[17] = Cmax in Balb/c mouse at 50 mg/kg, po; format: ADME, organism-based; set-up: route oral, dose 50 mg/kg; conditions: in vivo
[18] = Initial plasma concentration in Balb/c mouse at 50 mg/kg, po; format: ADME, organism-based; conditions: in vivo
[19] = AUC (0 to t) in Balb/c mouse at 10 mg/kg, iv; format: ADME, organism-based; set-up: dose 10 mg/kg; conditions: in vivo
[20] = Clearance in Balb/c mouse at 50 mg/kg, po; format: ADME, organism-based; conditions: in vivo
[21] = Volume of distribution in Balb/c mouse at 50 mg/kg, po; format: ADME, organism-based; conditions: in vivo
[22] = Oral bioavailability in Balb/c mouse at 50 mg/kg; format: ADME, organism-based; conditions: in vivo
[23] = target: T3, Amine oxidase [flavin-containing] A (Homo sapiens, UniProt P21397); experiment: Inhibition of MAO-A (unknown origin)
T3 sequence (P21397 whole entry): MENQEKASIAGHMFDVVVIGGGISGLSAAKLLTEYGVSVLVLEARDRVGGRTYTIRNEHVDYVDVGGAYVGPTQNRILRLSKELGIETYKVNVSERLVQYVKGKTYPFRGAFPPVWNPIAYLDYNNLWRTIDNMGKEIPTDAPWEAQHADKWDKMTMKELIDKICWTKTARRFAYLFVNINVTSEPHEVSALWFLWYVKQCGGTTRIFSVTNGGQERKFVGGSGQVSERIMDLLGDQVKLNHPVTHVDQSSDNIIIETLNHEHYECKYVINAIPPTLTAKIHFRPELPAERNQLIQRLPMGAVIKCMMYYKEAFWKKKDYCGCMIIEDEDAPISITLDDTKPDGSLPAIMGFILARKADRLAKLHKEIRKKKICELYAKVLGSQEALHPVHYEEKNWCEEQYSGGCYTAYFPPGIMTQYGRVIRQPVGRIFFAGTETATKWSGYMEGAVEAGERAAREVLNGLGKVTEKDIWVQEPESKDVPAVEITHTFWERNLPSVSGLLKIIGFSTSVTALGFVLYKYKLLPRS

[24] = target: T4, Amine oxidase [flavin-containing] B (Homo sapiens, UniProt P27338); experiment: Inhibition of MAO-B (unknown origin)
T4 sequence (P27338 whole entry): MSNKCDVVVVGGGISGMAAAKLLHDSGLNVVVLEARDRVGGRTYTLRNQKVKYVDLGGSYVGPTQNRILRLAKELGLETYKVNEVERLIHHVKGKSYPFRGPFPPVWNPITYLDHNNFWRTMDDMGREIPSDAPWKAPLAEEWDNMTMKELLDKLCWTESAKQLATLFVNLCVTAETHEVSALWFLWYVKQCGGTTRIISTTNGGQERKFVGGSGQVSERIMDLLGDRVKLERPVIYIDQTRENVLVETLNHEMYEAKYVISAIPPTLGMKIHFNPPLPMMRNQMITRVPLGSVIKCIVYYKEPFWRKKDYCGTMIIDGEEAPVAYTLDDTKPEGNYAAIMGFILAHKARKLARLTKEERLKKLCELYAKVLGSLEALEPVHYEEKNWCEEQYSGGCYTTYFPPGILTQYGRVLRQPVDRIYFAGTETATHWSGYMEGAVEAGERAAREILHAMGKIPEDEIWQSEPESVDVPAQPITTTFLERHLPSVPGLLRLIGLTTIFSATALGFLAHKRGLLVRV

[25] = target: Voltage-gated inwardly rectifying potassium channel KCNH2 (Homo sapiens, UniProt Q12809); experiment: Inhibition of human ERG
[26] = Solubility of compound; format: physicochemical
[27] = Permeability from apical to basolateral side in human Caco2 cells; format: ADME, cell-based; conditions: Caco-2, read-out: permeability
[28] = Permeability from basolateral to apical side in human Caco2 cells; format: ADME, cell-based; conditions: Caco-2, read-out: permeability
[29] = Protein binding in plasma (unknown origin) assessed as unbound fraction; format: ADME, cell-free
CYP3A4 = CYP3A4 (Homo sapiens, UniProt P08684); experiment: Inhibition of CYP3A4 (unknown origin) at 10 uM relative to control; format: ADME
CYP2D6 = CYP2D6 (Homo sapiens, UniProt P10635); experiment: Inhibition of CYP2D6 (unknown origin) at 10 uM relative to control; format: ADME
Chain of CYP2D6 (P10635 whole entry): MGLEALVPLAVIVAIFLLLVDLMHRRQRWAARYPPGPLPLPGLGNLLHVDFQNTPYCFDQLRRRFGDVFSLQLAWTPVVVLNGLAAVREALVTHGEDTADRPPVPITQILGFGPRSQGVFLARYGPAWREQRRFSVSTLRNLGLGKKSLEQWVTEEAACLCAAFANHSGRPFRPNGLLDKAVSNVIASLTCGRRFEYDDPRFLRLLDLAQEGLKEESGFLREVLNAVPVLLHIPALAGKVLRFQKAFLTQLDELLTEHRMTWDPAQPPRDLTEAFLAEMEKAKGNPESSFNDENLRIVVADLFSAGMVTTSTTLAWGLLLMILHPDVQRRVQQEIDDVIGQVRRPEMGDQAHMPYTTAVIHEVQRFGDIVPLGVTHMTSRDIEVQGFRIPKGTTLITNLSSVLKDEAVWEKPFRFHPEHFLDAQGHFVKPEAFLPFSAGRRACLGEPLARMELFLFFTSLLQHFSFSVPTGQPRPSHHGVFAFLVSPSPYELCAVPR

Chain of Voltage-gated inwardly rectifying potassium channel KCNH2 (Q12809 whole entry): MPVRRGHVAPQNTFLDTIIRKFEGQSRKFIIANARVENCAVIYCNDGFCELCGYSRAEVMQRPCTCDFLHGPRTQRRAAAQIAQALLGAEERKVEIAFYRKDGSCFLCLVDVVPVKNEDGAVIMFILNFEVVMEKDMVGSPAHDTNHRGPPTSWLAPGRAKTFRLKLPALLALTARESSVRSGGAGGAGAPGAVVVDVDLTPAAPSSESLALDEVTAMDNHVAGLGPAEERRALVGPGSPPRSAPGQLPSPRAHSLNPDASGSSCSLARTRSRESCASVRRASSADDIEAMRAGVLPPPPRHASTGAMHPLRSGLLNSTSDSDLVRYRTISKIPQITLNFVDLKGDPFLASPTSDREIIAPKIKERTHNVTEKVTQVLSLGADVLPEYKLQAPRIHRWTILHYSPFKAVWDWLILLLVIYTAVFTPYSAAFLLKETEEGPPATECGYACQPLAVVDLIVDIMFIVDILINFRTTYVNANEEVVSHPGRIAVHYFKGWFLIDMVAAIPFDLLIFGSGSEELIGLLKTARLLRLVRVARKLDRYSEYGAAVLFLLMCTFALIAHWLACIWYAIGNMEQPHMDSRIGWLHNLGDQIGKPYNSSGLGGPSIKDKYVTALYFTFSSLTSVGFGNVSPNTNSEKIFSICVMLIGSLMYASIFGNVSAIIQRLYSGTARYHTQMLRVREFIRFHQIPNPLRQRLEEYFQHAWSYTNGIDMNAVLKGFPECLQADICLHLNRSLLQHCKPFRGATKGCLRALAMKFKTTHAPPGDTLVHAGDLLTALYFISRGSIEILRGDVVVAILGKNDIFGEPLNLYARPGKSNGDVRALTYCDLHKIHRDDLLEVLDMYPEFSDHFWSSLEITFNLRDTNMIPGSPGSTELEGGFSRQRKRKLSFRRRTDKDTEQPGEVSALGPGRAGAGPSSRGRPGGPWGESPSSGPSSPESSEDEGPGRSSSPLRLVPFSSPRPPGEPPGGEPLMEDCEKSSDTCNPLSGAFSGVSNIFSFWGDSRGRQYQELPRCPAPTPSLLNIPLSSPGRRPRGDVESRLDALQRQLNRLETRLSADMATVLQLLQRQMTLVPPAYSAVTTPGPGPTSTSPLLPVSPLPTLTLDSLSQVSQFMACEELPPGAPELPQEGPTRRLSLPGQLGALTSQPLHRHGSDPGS
Chain of CYP3A4 (P08684 whole entry): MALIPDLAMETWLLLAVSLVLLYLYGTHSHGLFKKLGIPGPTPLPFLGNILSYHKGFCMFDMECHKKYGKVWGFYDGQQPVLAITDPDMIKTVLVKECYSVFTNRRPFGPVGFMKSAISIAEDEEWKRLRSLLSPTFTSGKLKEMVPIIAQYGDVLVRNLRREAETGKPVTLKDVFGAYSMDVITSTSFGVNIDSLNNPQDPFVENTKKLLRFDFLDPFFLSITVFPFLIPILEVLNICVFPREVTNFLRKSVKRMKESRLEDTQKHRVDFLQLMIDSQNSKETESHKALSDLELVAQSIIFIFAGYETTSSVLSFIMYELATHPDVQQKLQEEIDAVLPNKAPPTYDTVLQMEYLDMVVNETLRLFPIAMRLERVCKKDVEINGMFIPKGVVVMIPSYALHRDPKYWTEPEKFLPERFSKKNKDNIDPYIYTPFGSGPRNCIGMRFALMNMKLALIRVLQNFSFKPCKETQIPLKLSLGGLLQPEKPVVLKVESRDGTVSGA
Chain of Histone deacetylase 1 (Homo sapiens) (Q13547 whole entry): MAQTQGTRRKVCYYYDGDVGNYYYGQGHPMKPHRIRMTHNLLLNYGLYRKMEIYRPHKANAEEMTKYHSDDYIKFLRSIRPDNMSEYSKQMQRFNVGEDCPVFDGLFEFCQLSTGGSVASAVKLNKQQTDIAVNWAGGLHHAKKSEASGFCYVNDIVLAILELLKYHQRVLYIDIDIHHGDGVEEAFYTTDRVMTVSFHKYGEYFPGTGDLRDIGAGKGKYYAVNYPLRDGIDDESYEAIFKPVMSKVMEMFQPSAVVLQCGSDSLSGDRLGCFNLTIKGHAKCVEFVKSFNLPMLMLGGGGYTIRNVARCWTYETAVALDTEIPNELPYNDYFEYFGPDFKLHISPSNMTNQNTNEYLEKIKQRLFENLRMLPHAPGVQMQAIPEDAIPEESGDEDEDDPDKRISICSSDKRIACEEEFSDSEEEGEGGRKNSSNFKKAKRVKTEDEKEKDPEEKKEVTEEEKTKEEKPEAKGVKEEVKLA

Compound: Cl.Cl.NC1CCC(N[C@@H]2C[C@H]2c2ccccc2)CC1 (some centres not stated)
- IC50 [1]: Not Active
- inhibition [2]: inactive
- EC50 (MM1.S [3]): > 10 µM
- Activity (MM1.S [4]): 30%

- Stabilty [5]: 40%
- Stabilty [6]: 56%
- IC50 [7]: 1.78 µM
- IC50 [8]: > 10 µM
- EC50 (RPMI-8226): 0.28 µM
- concentration at 288 h [12]: 216 ng/mL
- concentration at 288 h [13]: 52 ng/mL
- half-life [14]: 3.3 h
- half-life [15]: 2.5 h
- Cmax [16]: 821 ng/mL
- Cmax [17]: 904 ng/mL
- C0 [18]: 1406 ng/mL
- AUC(0-t) [19]: 1520 ng·h/mL
- CL/F [20]: 233 mL/min/kg
- Vd [21]: 66 L/kg
- bioavailability [22]: 44%
- IC50 [23]: 8.6 µM
- IC50 [24]: 6.6 µM
- solubility [26]: 110 µM (≈ 44.8 µg/mL)
- Papp A→B [27]: 2.67 ×10⁻⁶ cm/s
- Papp B→A [28]: 9.6 ×10⁻⁶ cm/s
- fraction unbound [29]: 0.45
- inhibition at 10 µM (CYP3A4): 11%
- inhibition at 10 µM (CYP2D6): 54%
Compound: O=C(NO)c1ccc(CCCN2CCC(CN[C@H]3C[C@@H]3c3ccccc3)CC2)cc1 (racemic)
- EC50 [9]: 0.006 µM
- inhibition in vivo at 25 mg/kg (MM1.S [10]): 67%
- Activity [11]: Non-Toxic
- IC50 [25]: 5.6 µM
